In US20230416261A1, “ETHANEDIAMINE-HETEROCYCLE DERIVATIVES AS INHIBITORS OF PROTEIN ARGININE METHYLTRANSFERASES” (Board of Regents, The University of Texas System, priority 2021, published 2023):

How the values were obtained:
PRMT1 = PRMT1 (Homo sapiens, UniProt Q99873); experiment: PRMT1 RKO Cellular Target Engagement Assay (In-Cell Western, asymmetric di-methyl arginine); assay type: cell-based; conditions: RKO cells, 48 hr compound incubation; read-out: RKO IC50 (PRMT-1 Target Engagement)
Outline: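 RKO cells (1,000/well) received 1:3 serially diluted compound for 48 h at 37 °C, then were fixed, permeabilised and immunostained for asymmetric di-methyl arginine by In-Cell Western. The 800 nm antibody signal was normalised to CellTag 700 nm; IC50 from four-parameter logistic fit.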

[1] = test system: PANC-1 (pancreatic ductal adenocarcinoma) xenograft; experiment: Anti-tumor effects in PANC-1 mouse xenograft model; assay type: in vivo; conditions: BID, 28 days, C.B-17 SCID mice
Method: The effect of the compounds of Examples 1 and 2 on tumor growth was assessed in a PANC-1 (pancreatic ductal adenocarcinoma) mouse xenograft model. Female C.B -Igh-I^b/IcrTac-Prkdc^scid (C.B-17 SCID) mice were injected subcutaneously in the right flank with a suspension of […] cells (5 million cells with 50% Matrigel (Corning #356231) in sterile Dulbecco's phosphate buffered saline (DPBS, Life Technologies #14190-144). After implantation, tumor volume (TV) was measured weekly and mice bearing tumors with volumes ˜200 mm^3 were randomized into treatment groups of 8 mice each. Mice were dosed by oral gavage, twice daily for 28 days with either vehicle or 1 and 2 at the doses reported in Table 6 and Table 7 respectively. The doses were scaled to the body weights (BW) of individual animals at a dosing volume of 5 mL/Kg. Throughout the duration of study tumor growth was assessed by caliper measurement and treatment response was determined by percent tumor growth inhibition (% TGI; calculated as TGI %=(Ci−Ti)/(Ci−C0)*100%; Ci and Ti are the mean tumor volumes of the vehicle and treatment groups on the measurement day, respectively; C0 is the mean tumor volume of the vehicle group on day 0 (i.e. the day before treatment started). Mouse body weight was measured bi-weekly and reported as percentage of BW change from day 0 (calculated as Body Weight Change %=(BWi−BW0)/BW0*100%; BWi and BW0 are body weight of an individual mouse on measurement day i and on day 0, respectively). Statistical significance was calculated by repeated-measures two-way ANOVA with multiple comparisons and Tukey correction using GraphPad Prism 8.0.

DOHH2 cells = experiment: DOHH2 Long Term Phenotypic Assay (7 days, Cell Titer-Glo viability); assay type: cell-based; conditions: Homo sapiens, DOHH-2, 168 h, Cell Titer-Glo 2.0
Outline: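 DOHH2 lymphoma cells (250 per well) in RPMI-1640 with 10% FBS were exposed to 1:3 serially diluted compounds for 7 days at 37 °C, 5% CO2. Viability was read by CellTiter-Glo 2.0 luminescence, and IC50 values came from four-parameter logistic fits.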

PRMT1, sequence (Q99873 whole entry): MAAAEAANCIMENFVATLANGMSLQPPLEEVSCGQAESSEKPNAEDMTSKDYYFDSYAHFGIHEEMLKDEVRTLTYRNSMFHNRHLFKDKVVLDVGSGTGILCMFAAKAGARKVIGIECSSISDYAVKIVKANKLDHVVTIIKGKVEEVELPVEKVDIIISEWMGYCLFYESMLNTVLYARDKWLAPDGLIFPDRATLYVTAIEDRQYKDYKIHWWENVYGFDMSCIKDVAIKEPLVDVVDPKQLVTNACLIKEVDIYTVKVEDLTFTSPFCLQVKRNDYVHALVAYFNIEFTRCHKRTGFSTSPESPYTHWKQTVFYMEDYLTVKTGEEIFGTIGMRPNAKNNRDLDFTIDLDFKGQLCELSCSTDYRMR

IC50 (PRMT1)	Compound	Tumor Growth Inhibition % (TGI %; day 28) ([1]; 150 mg/Kg PO)	Tumor Growth Inhibition % (TGI %; day 28) ([1]; 225 mg/Kg PO)	IC50 (DOHH2 cells)
311 nM	COCC1(COC)CCC(c2c(CN(C)CCN)nn3c2CN(C(=O)C(C)(C)C)CC3)CC1 [Example 2, 1-(2-(((2-aminoethyl)(methyl)amino)methyl)-3-(4,4-bis(methoxymethyl)cyclohexyl)-6,7-dihydropyrazolo[1,5-a]pyrazin-5(4H)-yl)-2,2-dimethylpropan-1-one]	48%	70%	158 nM
138 nM	CNCCN(C)Cc1nn2c(c1C1CCC(COC)(COC)CC1)CN(C(=O)C1CCC1)CC2 [Example 1, (3-(4,4-Bis(methoxymethyl)cyclohexyl)-2-((methyl(2-(methylamino)ethyl)amino)methyl)-6,7-dihydropyrazolo[1,5-a]pyrazin-5(4H)-yl)(cyclobutyl)methanone]	49%	68%	66 nM
